What was measured:
DDR1 = biological target: T1, DDR1 (Homo sapiens, UniProt Q08345); test: LanthaScreen Europium Kinase Binding assay, DDR1; conditions: 5 nM DDR1, 20 nM Kinase Tracer 178, 1 h at rt; Ki from IC50 by Cheng-Prusoff; read-out: Ki DDR1
T1 construct: purchased Carna Biosciences
Description: (§1) DDR1 and DDR2 binding assays were performed using Life Technologies LanthaScreen™ Europium Kinase Binding assay. The compounds were incubated with 5 nM DDR1 (Carna Biosciences) or 5 nM DDR2 (Life Technologies) for 1 h at rt in white 384-well OptiPlate (PerkinElmer), containing 20 nM or 10 nM Kinase Tracer 178 respectively and 2 nM Europium labelled anti-GST antibody (Life Technologies) in assay buffer (50 mM HEPES pH 7.5, 10 mM MgCI2, 1 mM EGTA and 0.01% BRIJ35). The ratio of fluorescence emission 665 nm/615 nm after excitation at 340 nm was obtained using the Tecan Spark 20M plate reader. IC50 values were determined in GraphPad Prism 7.0 software, using 4 parameter model: log(inhibitor) vs. response. IC50 values were converted in Ki using the Cheng-Prusoff equation (Ki=IC50/(1+[Tracer]/Kd).

DDR2 = biological target: T2, DDR2 (Homo sapiens, UniProt Q16832); test: LanthaScreen Europium Kinase Binding assay, DDR2; conditions: 5 nM DDR2, 10 nM Kinase Tracer 178, 1 h at rt; Ki from IC50 by Cheng-Prusoff; read-out: Ki DDR2
T2 construct: purchased Life Technologies
T2 sequence (Q16832 22-855): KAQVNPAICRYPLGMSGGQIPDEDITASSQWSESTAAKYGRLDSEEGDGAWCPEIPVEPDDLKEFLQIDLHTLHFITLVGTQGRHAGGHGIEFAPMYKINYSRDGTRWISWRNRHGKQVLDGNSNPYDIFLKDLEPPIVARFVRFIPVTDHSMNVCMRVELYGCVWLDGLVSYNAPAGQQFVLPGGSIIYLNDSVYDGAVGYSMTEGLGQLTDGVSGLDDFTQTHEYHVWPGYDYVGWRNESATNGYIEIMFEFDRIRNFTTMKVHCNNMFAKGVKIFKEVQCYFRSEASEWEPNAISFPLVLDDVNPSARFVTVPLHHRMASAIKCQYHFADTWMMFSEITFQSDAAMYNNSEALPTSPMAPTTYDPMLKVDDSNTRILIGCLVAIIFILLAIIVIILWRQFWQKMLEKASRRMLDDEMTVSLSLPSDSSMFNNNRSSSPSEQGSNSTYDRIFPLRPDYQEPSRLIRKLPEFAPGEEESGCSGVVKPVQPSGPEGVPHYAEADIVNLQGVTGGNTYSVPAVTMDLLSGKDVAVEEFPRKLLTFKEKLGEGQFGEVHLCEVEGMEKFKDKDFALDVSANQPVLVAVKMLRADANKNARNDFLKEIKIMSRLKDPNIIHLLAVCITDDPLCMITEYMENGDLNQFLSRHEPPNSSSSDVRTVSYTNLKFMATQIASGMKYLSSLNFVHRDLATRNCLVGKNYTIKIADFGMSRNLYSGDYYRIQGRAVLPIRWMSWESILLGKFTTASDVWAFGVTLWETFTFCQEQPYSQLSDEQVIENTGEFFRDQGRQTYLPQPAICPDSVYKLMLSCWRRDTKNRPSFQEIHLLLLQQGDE
Description: as §1

T1 sequence (Q08345 19-913): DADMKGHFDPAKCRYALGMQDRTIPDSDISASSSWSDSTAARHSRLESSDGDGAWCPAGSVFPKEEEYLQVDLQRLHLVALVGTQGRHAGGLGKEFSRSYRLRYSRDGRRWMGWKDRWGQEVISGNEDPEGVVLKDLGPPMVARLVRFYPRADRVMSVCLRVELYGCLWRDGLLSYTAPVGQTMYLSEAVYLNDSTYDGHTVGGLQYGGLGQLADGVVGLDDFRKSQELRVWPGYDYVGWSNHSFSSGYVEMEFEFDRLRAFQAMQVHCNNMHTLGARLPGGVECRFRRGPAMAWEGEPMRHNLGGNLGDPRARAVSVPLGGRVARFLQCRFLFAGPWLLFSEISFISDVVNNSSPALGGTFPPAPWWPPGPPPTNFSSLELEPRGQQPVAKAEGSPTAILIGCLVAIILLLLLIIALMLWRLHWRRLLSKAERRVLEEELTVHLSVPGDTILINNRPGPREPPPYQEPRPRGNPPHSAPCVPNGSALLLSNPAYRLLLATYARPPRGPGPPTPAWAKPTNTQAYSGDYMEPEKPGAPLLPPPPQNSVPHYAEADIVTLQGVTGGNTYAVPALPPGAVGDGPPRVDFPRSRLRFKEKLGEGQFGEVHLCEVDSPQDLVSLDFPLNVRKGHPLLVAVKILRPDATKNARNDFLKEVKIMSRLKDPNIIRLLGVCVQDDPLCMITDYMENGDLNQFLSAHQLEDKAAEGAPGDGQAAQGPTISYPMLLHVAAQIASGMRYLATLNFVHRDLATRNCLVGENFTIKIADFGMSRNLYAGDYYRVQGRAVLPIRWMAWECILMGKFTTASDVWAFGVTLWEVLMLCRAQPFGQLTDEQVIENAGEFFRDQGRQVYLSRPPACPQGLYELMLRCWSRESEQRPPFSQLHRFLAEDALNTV

Compound	Ki (DDR1)	Ki (DDR2)
Cc1ccc(C(=O)Nc2ccc(OC(F)(F)F)cn2)cc1[C@@H]1CCN(c2cncc(C(N)=O)c2)C1 [Example 10, (S)-5-(3-(2-methyl-5-((5-(trifluoromethoxy)pyridin-2-yl)carbamoyl)phenyl)pyrrolidin-1-yl)nicotinamide]	< 5 nM	5 to 25 nM
Cc1ccc(C(=O)Nc2cc(C(C)(C)C)on2)cc1[C@@H]1CCN(c2cncc(C(N)=O)c2)C1 [Example 11, (S)-5-(3-(5-((5-(tert-butyl)isoxazol-3-yl)carbamoyl)-2-methylphenyl)pyrrolidin-1-yl)nicotinamide]	< 5 nM	< 5 nM
Cc1ccc(C(=O)Nc2cc(OC(F)(F)F)ccn2)cc1[C@@H]1CCN(c2cncnc2)C1 [Example 12, (S)-4-methyl-3-(1-(pyrimidin-5-yl)pyrrolidin-3-yl)-N-(4-(trifluoro-methoxy)pyridin-2-yl)benzamide]	< 5 nM	< 5 nM
Cc1ccc(C(=O)Nc2cc(C(C)(C)C)n(C)n2)cc1[C@@H]1CCN(c2cncnc2)C1 [Example 13, (S)-N-(5-(tert-butyl)-1-methyl-1H-pyrazol-3-yl)-4-methyl-3-(1-(pyrimidin-5-yl)pyrrolidin-3-yl)benzamide]	< 5 nM	< 5 nM
Cc1ccc(C(=O)Nc2cc(C(C)(C)C(F)(F)F)on2)cc1[C@@H]1CCN(c2cncnc2)C1 [Example 14, (S)-4-methyl-3-(1-(pyrimidin-5-yl)pyrrolidin-3-yl)-N-(5-(1,1,1-trifluoro-2-methylpropan-2-yl)isoxazol-3-yl)benzamide]	< 5 nM	< 5 nM
Cc1ccc(C(=O)Nc2cc(C(F)(F)F)ccn2)cc1[C@@H]1CCN(c2cncnc2)C1 [Example 15, (S)-4-methyl-3-(1-(pyrimidin-5-yl)pyrrolidin-3-yl)-N-(4-(trifluoromethyl)pyridin-2-yl)benzamide]	< 5 nM	< 5 nM
Cc1ccc(C(=O)Nc2cc(C(C)(C)C)on2)cc1[C@@H]1CCN(c2cncnc2)C1 [Example 16, (S)-N-(5-(tert-butyl)isoxazol-3-yl)-4-methyl-3-(1-(pyrimidin-5-yl)pyrrolidin-3-yl)benzamide]	< 5 nM	< 5 nM
Cc1ccc(C(=O)Nc2cc(C(C)(C)C)nn2C)cc1[C@@H]1CCN(c2cncnc2)C1 [Example 17, (S)-N-(3-(tert-butyl)-1-methyl-1H-pyrazol-5-yl)-4-methyl-3-(1-(pyrimidin-5-yl)pyrrolidin-3-yl)benzamide]	< 5 nM	5 to 25 nM
Cc1ccc(C(=O)Nc2cncc(OC(F)(F)F)c2)cc1[C@@H]1CCN(c2cncnc2)C1 [Example 18, (S)-4-methyl-3-(1-(pyrimidin-5-yl)pyrrolidin-3-yl)-N-(5-(trifluoromethoxy)pyridin-3-yl)benzamide]	< 5 nM	< 5 nM
Cc1ccc(C(=O)Nc2cc(C(C)(C)C)no2)cc1[C@@H]1CCN(c2cncnc2)C1 [Example 19, (S)-N-(3-(tert-butyl)isoxazol-5-yl)-4-methyl-3-(1-(pyrimidin-5-yl)pyrrolidin-3-yl)benzamide]	< 5 nM	< 5 nM
Cc1ccc(C(=O)Nc2ccc(OC(F)(F)F)cn2)cc1[C@@H]1CCN(c2cncnc2)C1 [Example 20, (S)-4-methyl-3-(1-(pyrimidin-5-yl)pyrrolidin-3-yl)-N-(5-(trifluoromethoxy)pyridin-2-yl)benzamide]	< 5 nM	5 to 25 nM
Cc1ccc(C(=O)Nc2cc(OC(F)F)ccn2)cc1[C@@H]1CCN(c2cncnc2)C1 [Example 21, (S)-N-(4-(difluoromethoxy)pyridin-2-yl)-4-methyl-3-(1-(pyrimidin-5-yl)pyrrolidin-3-yl)benzamide]	< 5 nM	< 5 nM
Cc1ccc(C(=O)Nc2cncc(C(F)(F)F)c2)cc1[C@@H]1CCN(c2cncc(C(F)F)c2)C1 [Example 22, (S)-3-(1-(5-(difluoromethyl)pyridin-3-yl)pyrrolidin-3-yl)-4-methyl-N-(5-(trifluoromethyl)pyridin-3-yl)benzamide]	< 5 nM	5 to 25 nM
